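Exposure lasted 48 hours, with cells grown in 96-well plates and compounds tested at five concentrations. GI50 marks 50% less growth. TGI: concentration producing complete growth inhibition.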
Assays:
Test in all cases: NCI-60 cell line screen, 48 h
[1] = test system: 786-0 renal
[2] = test system: A498 renal
[3] = test system: ACHN renal
[4] = test system: BT-549 breast
[5] = test system: CAKI-1 renal
[6] = test system: CCRF-CEM leukemia
[7] = test system: COLO 205 colon
[8] = test system: DU-145 prostate
[9] = test system: EKVX NSCLC
[10] = test system: HCC-2998 colon
[11] = test system: HCT-116 colon
[12] = test system: HCT-15 colon
[13] = test system: HL-60(TB) leukemia
[14] = test system: HOP-62 NSCLC
[15] = test system: HS 578T breast
[16] = test system: HT29 colon
[17] = test system: IGROV1 ovarian
[18] = test system: K-562 leukemia
[19] = test system: KM12 colon
[20] = test system: LOX IMVI melanoma
[21] = test system: M14 melanoma
[22] = test system: MALME-3M melanoma
[23] = test system: MCF7 breast
[24] = test system: MDA-MB-231 breast
[25] = test system: MDA-MB-435
[26] = test system: MDA-MB-468 breast
[27] = test system: MOLT-4 leukemia
[28] = test system: NCI-H226 lung
[29] = test system: NCI-H23 lung
[30] = test system: NCI-H460 lung
[31] = test system: NCI-H522 lung
[32] = test system: NCI/ADR-RES ovarian
[33] = test system: OVCAR-3 ovarian
[34] = test system: OVCAR-4 ovarian
[35] = test system: OVCAR-5 ovarian
[36] = test system: OVCAR-8 ovarian
[37] = test system: PC-3 prostate
[38] = test system: RPMI-8226 leukemia
[39] = test system: RXF 393 renal
[40] = test system: SF-268 CNS
[41] = test system: SF-295 CNS
[42] = test system: SF-539 CNS
[43] = test system: SK-MEL-2 melanoma
[44] = test system: SK-MEL-28 melanoma
[45] = test system: SK-MEL-5 melanoma
[46] = test system: SK-OV-3 ovarian
[47] = test system: SN12C renal
[48] = test system: SNB-19 CNS
[49] = test system: SR leukemia
[50] = test system: SW-620 colon
[51] = test system: T-47D breast
[52] = test system: TK-10 renal
[53] = test system: U251 CNS
[54] = test system: UACC-257 melanoma
[55] = test system: UACC-62 melanoma
[56] = test system: UO-31 renal

CN1CCN(c2ccc(C(=O)/C=C/c3cc(C(F)(F)F)cc(C(F)(F)F)c3)cc2)CC1
GI50 [1]: 1680 nM
TGI [1]: 3110 nM
GI50 [2]: 17900 nM
TGI [2]: 35600 nM
GI50 [3]: 1490 nM
TGI [3]: 2820 nM
GI50 [4]: 1330 nM
TGI [4]: 2660 nM
GI50 [5]: 1660 nM
TGI [5]: 3260 nM
GI50 [6]: 2380 nM
TGI [6]: 5870 nM
GI50 [7]: 2030 nM
TGI [7]: 3870 nM
GI50 [8]: 1630 nM
TGI [8]: 3040 nM
GI50 [9]: 1870 nM
TGI [9]: 3410 nM
GI50 [10]: 1390 nM
TGI [10]: 2680 nM
GI50 [11]: 1150 nM
TGI [11]: 2450 nM
GI50 [12]: 1120 nM
TGI [12]: 2390 nM
GI50 [13]: 1040 nM
TGI [13]: 2790 nM
GI50 [14]: 1860 nM
TGI [14]: 3750 nM
GI50 [15]: 4880 nM
TGI [15]: 34700 nM
GI50 [16]: 1620 nM
TGI [16]: 3410 nM
GI50 [17]: 1650 nM
TGI [17]: 3150 nM
GI50 [18]: 1070 nM
TGI [18]: 6370 nM
GI50 [19]: 1760 nM
TGI [19]: 3820 nM
GI50 [20]: 1350 nM
TGI [20]: 2630 nM
GI50 [21]: 1520 nM
TGI [21]: 2970 nM
GI50 [22]: 1660 nM
TGI [22]: 3070 nM
GI50 [23]: 1200 nM
TGI [23]: 2560 nM
GI50 [24]: 1750 nM
TGI [24]: 3350 nM
GI50 [25]: 1600 nM
TGI [25]: 3070 nM
GI50 [26]: 1240 nM
TGI [26]: 2560 nM
GI50 [27]: 1420 nM
TGI [27]: 5010 nM
GI50 [28]: 1490 nM
TGI [28]: 3200 nM
GI50 [29]: 1510 nM
TGI [29]: 2970 nM
GI50 [30]: 2890 nM
TGI [30]: > 100000 nM
GI50 [31]: 1400 nM
TGI [31]: 2970 nM
GI50 [32]: 1640 nM
TGI [32]: 3640 nM
GI50 [33]: 1450 nM
TGI [33]: 2940 nM
GI50 [34]: 1520 nM
TGI [34]: 3490 nM
GI50 [35]: 1680 nM
TGI [35]: 3200 nM
GI50 [36]: 1730 nM
TGI [36]: 4360 nM
GI50 [37]: 1640 nM
TGI [37]: 3320 nM
GI50 [38]: 1440 nM
TGI [38]: 3800 nM
GI50 [39]: 1190 nM
TGI [39]: 2570 nM
GI50 [40]: 1820 nM
TGI [40]: 3710 nM
GI50 [41]: 1470 nM
TGI [41]: 2820 nM
GI50 [42]: 1640 nM
TGI [42]: 3000 nM
GI50 [43]: 1730 nM
TGI [43]: 3230 nM
GI50 [44]: 1680 nM
TGI [44]: 3050 nM
GI50 [45]: 1550 nM
TGI [45]: 2900 nM
GI50 [46]: 2600 nM
TGI [46]: 6120 nM
GI50 [47]: 1300 nM
TGI [47]: 2590 nM
GI50 [48]: 1730 nM
TGI [48]: 3100 nM
GI50 [49]: 1170 nM
TGI [49]: 3930 nM
GI50 [50]: 1810 nM
TGI [50]: 4510 nM
GI50 [51]: 1270 nM
TGI [51]: 3100 nM
GI50 [52]: 2000 nM
TGI [52]: 3450 nM
GI50 [53]: 1660 nM
TGI [53]: 3180 nM
GI50 [54]: 1730 nM
TGI [54]: 3580 nM
GI50 [55]: 1500 nM
TGI [55]: 2860 nM
GI50 [56]: 1460 nM
TGI [56]: 2780 nM

— PubChem BioAssay (NCI)
